Assay results reported in US9879058B2, “Use of compounds that selectively modulate astrocytic release of substances through hemichannels of connexins and pannexins, without influencing gap junctions, for the treatment of psychiatric disorders” (Universidad Andres Bello, priority 2012, dated 2018).
Entries after “also recorded” stand apart in the source; their conditions may differ. No end group written: not given here.

What was measured:
[1] = target: T1, Cx43 gap junction channels (Rattus norvegicus, UniProt P08050); assay: Lucifer yellow dye coupling in astroglial cultures; type: cell-based
T1 construct: endogenous in cells; host or cells: primary hippocampal astrocytes of newborn (PN1) rats
Protocol: F. Immunohistochemistry: Brain slices previously fixed in buffered 4% paraformaldehyde and maintained in 30% sucrose were mounted in gelatin coated glass slides. After rinsing with PBS, slices were blocked and permeabilized with 1% bovine serum albumin (BSA, Sigma-Aldrich), and 3% Triton X-100 in PBS for 1 h at room temperature. After rinsing again, sections were incubated overnight at 4° C. with the primary anti-Cx43 antibody (Sigma). Afterwards, sections were rinsed with PBS and incubated for 1 h at 37° C. with Alexa Fluor® 488-conjugated secondary antibody. To identify neurons and astrocytes, sections were incubated overnight at 4° C. with either monoclonal anti-MAP2 (M 4402, Sigma-Aldrich, St-Louis, Mo.) for neurons or polyclonal anti-GFAP (Sigma-Aldrich, St-Louis, Mo.) for astrocytes. Sections were washed and incubated for 1 h at 37° C. with Alexa Fluor® 568-conjugated secondary antibodies. Finally, slides were washed and permanently mounted using ProLong® (invitrogen). Staining specificity was assayed by incubation of sections in the absence of the primary antibody. Samples were examined using laser scanning confocal microscopy on a Fluoview FV1000 (Olympus). G. Primary Cell Cultures: G.1. Astrocyte cultures: Primary astrocyte cultures were prepared from hippocampus of newborn (PN1) rats. […]
J. Dye Coupling: Astrocytes plated on glass coverslips were bathed with recording medium (HCO3-free F-12 medium buffered with 10 mM HEPES, pH 7.2) and intercellular communication mediated by gap junctions was tested by evaluating the transfer to neighboring cells of Lucifer yellow (LY) (Sigma-Aldrich, St-Louis, Mo.) microinjected into one cell. […] The coupling index was calculated as the mean number of cells to which the dye spread. K. Data Analysis: Data were expressed as Mean+SD. Statistical differences were assessed by unpaired student's t-test (Mann-Whitney) and by one-way analysis of variance (ANOVA) for multiple comparisons, followed by Dunns post hoc test, and considered significant when p<0.05. p-values in the text are written as either <0.01% or <0.05%.

Sprague Dowley rats = assay: Auditory fear conditioning with microinfusion into the basolateral amygdala; type: in vivo, rat
Protocol: A. Animals: All procedures involving animals were in accordance to NIH guidelines and with approval of the bioethical committee of the Universidad Andrés Bello. Sprague Dowley rats (˜60 d old, ˜250 g) were caged individually at 22° C., 12/12 h light/dark cycle. The rats remained in their home box throughout the study, and were removed only briefly for drug microinfusion. B. Drugs: TAT-Cx43L2 ([…] (SEQ ID NO: 1), LifeTein, South Plainfield, N.J., USA, >90% purity) was dissolved in PBS to yield final solutions of 1 mM, 100 μM, 10 μM, 1 μM or 100 nM. Unless stated otherwise, the concentration used for microinfusions of TAT-Cx43L2 was 1 mM. As a control, TAT-Cx43L2^H126K/I130N was used at 1 mM. Gap27 (AnaSpec, Fremont, Calif., USA, >95% purity) and Gap27 scramble were dissolved to a final concentration of 1 mM. For the recovery cocktail, 100 mM glutamate (Sigma), D-serine (200 nM), glutamine (100 mM), ATP (100 μM), lactate (10 mM) and glycine (100 nM) were diluted in sterile saline. C. Apparatus: All behavioral essays were performed in a sound attenuating cubicle. Conditioning and tone testing were conducted in different chambers. For conditioning, rats were placed in a Plexiglas chamber with a metal grid floor (40 cm×40 cm×40 cm). The chamber was dimly illuminated by a red light. For testing, rats were placed in a different Plexiglas chamber without the metal grid (60 cm×40 cm) dimly illuminated by a white light bulb. A video camera was mounted at the top of each chamber to allow digital recording throughout the experiments. D. Surgery and histology: Under ketamine/xylazine anesthesia ([…], respectively), rats were stereotaxically implanted with bilateral 22-gauge stainless steel cannulas aimed 1.0 mm above the basolateral amygdala (3.0 mm posterior to Bregma, 5.3 mm lateral to the midline, and 8.0 mm ventral to the skull surface (Paxinos, G., Watson, C. (1998). The Rat Brain in Stereotaxic Coordinates; Press A, editor. San Diego). The cannulas were fixed with acrylic dental cement and secured by 4 skull screws. A stylus was placed inside the guide cannula to prevent clogging. Rats were given at least 7 days to recover before experimental procedures began.
In all experiments, stylus was removed from the guide cannula, and a 28-gauge injection cannula was inserted through the guide cannula, extending 1.0 mm beyond its tip into the BLA. Drugs were infused slowly via the injection cannula, connected by PE20 tubing to Hamilton microsyringes driven by a microinfusion pump. Infusions were of 0.25 μl per hemisphere at a rate of 0.32 μl/min. Following drug infusion, injecting cannulaes were left in place for 10 minutes to allow drug diffusion away from the cannula tip. Cannula placement and maximal diffusion was verified by infusing 0.5 μl of India ink in a group of 5 rats. The maximal diffusion spread observed included only lateral and basal amygdala nuclei. At the end of all experiments, animals were anesthetized as above and perfused intracardially with saline, 4% buffered paraformaldehyde. Brains were extracted and postfixed in 30% sucrose until density equaled that of sucrose. […] Animals with histological lesions beyond the size of the cannula tip and guide cannula diameter were excluded from the analysis.
E. Behavioral procedures: The conditioning is based on the animal learning that a previously neutral stimulus (a conditioned stimulus, CS; e.g. an innocuous sound) becomes predictive of a stressful stimulus (unconditioned stimulus, US; e.g. footshock). In all of experiments, rats were habituated to handling during the 7 recovery days and also habituated to the training and testing chambers for 3 days, 10 min each day. On the conditioning day, the animals were left in the chamber for 3 minutes before beginning of the training. Each training session consisted of 3 CS-US pairings in 30 s intervals. […]

[2] = 1 mM into BLA 10 min before training

T1 sequence (P08050 whole entry): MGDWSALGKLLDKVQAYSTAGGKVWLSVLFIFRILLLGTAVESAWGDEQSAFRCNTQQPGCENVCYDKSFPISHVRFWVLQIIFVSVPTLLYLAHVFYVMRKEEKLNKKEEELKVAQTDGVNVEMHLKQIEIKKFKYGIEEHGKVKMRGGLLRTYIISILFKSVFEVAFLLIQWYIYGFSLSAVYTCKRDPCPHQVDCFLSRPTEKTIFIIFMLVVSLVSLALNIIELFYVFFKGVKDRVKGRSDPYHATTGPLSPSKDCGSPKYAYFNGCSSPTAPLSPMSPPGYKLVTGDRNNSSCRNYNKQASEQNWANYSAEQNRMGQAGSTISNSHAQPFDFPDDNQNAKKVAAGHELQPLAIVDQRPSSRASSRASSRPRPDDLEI

## YGRKKRRQRRRDGANVDMHLKQIEIKKFKYGIEEHGK [TAT-Cx43L2, synthetic cell-permeable peptide corresponding to the Cx43L2 region (aa 119-144) of the cytoplasmic loop of Cx43]
[1]; 1 mM, 10 min incubation, hippocampal astroglial cultures
  astroglial coupling (intracellular transfer of LY): did not affect astroglial coupling
[1]; n=3
  astrocyte coupling incidence: had no effect on astrocyte coupling incidence
  astrocyte coupling index: had no effects on astrocyte coupling index
Sprague Dowley rats; [2]
  long term fear memory (freezing to tone) 24 h after training: strongly impaired fear conditioning memory consolidation; also recorded: complete amnesia
  short term memory (freezing to tone between the 3 pairings during training): not affected; also recorded: unaffected short term memory
Sprague Dowley rats; microinfusion into BLA
  concentration dependence of amnesic effect: concentration dependent
  lower concentration still capable of inducing amnesic effects: 10 nM
Sprague Dowley rats; microinjection into BLA 6 h after learning
  memory when injected 6 h after training: had no effects on memory when injected 6 h after training; also recorded: no memory deficits
Sprague Dowley rats; retrained 48 h after the initial conditioning
  learning capacity on retraining: recovered their capacity to learn; also recorded: recovered their learning capacity
